Measurements published in patent publication US9738655B2, “Tetrahydroisoquinolines containing substituted azoles as factor XIa inhibitors” (BRISTOL-MYERS SQUIBB COMPANY, priority 2013, dated 2017).
Where a name gives a salt, the structure may show the parent alone.

Legend:
[1] = biological target: purified human plasma kallikrein (Homo sapiens (Human), UniProt P03952); experiment: Plasma kallikrein enzyme inhibition assay (chromogenic substrate S-2302); type: biochemical
[2] = biological target: purified human Factor XIa (Homo sapiens (Human), UniProt P03951); experiment: Factor XIa enzyme inhibition assay (chromogenic substrate S-2366); conditions: read-out: Factor XIa Ki; measured at 25° C.
Chain of purified human Factor XIa (P03951 388-625): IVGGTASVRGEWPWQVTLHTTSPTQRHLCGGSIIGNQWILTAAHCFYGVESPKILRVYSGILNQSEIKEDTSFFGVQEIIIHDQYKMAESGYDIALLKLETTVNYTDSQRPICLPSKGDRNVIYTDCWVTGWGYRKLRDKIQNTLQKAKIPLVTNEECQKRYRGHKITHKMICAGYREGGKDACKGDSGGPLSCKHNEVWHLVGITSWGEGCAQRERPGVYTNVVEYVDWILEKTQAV
Chain of purified human Factor XIa (P03951 19-387 partner): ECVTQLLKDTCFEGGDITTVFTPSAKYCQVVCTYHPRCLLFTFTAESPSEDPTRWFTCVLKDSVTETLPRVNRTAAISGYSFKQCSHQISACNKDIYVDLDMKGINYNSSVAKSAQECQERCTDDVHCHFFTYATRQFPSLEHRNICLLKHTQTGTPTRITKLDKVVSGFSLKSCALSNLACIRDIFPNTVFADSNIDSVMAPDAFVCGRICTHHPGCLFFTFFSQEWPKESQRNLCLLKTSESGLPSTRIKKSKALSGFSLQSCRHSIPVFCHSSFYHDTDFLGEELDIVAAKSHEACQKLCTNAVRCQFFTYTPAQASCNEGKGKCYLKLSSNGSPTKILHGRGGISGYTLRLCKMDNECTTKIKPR

[3] = measured at 25° C. (no asterisk)

Chain of purified human plasma kallikrein (P03952 391-638): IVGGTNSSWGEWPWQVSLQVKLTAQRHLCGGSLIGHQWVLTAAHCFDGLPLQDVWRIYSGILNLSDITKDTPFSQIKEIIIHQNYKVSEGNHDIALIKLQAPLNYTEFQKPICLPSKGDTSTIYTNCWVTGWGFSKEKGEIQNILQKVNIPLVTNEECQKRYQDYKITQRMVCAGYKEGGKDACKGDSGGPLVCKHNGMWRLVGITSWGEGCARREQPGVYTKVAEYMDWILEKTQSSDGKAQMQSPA
Chain of purified human plasma kallikrein (P03952 20-390 partner): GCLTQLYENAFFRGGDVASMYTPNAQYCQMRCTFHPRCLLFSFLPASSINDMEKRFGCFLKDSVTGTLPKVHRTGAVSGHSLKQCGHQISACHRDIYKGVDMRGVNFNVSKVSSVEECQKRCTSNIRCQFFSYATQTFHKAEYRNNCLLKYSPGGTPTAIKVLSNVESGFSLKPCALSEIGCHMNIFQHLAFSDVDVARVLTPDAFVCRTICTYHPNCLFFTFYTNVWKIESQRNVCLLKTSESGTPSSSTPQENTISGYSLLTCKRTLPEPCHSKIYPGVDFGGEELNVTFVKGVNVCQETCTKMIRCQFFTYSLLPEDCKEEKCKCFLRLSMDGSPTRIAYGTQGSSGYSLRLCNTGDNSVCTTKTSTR

Structure (SMILES) | Ki [1, 3] [µM] | Ki ([1]; measured at 37° C. (*)) [µM] | other results
O=C(O)c1ccc(NC(=O)C2c3cccc(N4CCN(CC(F)(F)F)CC4=O)c3CCN2C(=O)c2cn(-c3cccc(Cl)c3F)nn2)cc1 (stereo not drawn) [Example 197, 4-(2-(1-(3-Chloro-2-fluorophenyl)-1H-1,2,3-triazole-4-carbonyl)-5-(2-oxo-4-(2,2,2-trifluoroethyl)piperazin-1-yl)-1,2,3,4-tetrahydroisoquinoline-1-carboxamido)benzoic acid, TFA salt] | 0.01 |  | Ki [2]: < 0.005 µM
COC1CCN(c2cccc3c2CCN(C(=O)c2cn(-c4cccc(Cl)c4F)nn2)C3C(=O)Nc2ccc(C(=O)O)cc2)CC1 (stereo not drawn) [Example 215, 4-(2-(1-(3-chloro-2-fluorophenyl)-1H-1,2,3-triazole-4-carbonyl)-5-(4-methoxypiperidin-1-yl)-1,2,3,4-tetrahydroisoquinoline-1-carboxamido)benzoic acid, TFA salt] | 0.0202 |  | Ki [2]: < 0.005 µM
COC1CCN(c2cccc3c2CCN(C(=O)C2CC(=O)N(c4c(F)ccc(Cl)c4F)C2)C3C(=O)Nc2ccc(C(=O)O)cc2)CC1 (stereo not drawn) [Example 71, 4-(2-(1-(3-chloro-2,6-difluorophenyl)-5-oxopyrrolidine-3-carbonyl)-5-(4-methoxypiperidin-1-yl)-1,2,3,4-tetrahydroisoquinoline-1-carboxamido)benzoic acid, TFA salt] |  | > 6 | Ki [2]: 0.913 µM
CN(C)C1CCN(c2cccc3c2CCN(C(=O)c2cn(-c4cccc(Cl)c4F)cn2)[C@@H]3C(=O)Nc2ccc(C(=O)O)cc2)CC1 (single isomer, unassigned) [Example 55, bis-TFA salt] | 0.00092 |  | Ki [2]: < 0.005 µM
O=C(O)c1ccc(NC(=O)[C@@H]2c3cccc(-n4cnnc4)c3CCN2C(=O)[C@H]2CC(c3cccc(Cl)c3F)=NO2)cc1 [Example 247, 4-((S)-2-((R)-3-(3-Chloro-2-fluorophenyl)-4,5-dihydroisoxazole-5-carbonyl)-5-(4H-1,2,4-triazol-4-yl)-1,2,3,4-tetrahydroisoquinoline-1-carboxamido)benzoic acid, TFA salt] |  | 0.0092 | 
O=C(O)c1ccc(NC(=O)[C@@H]2c3cccc(N4CCC(C5COC5)CC4)c3CCN2C(=O)[C@H]2CC(c3cccc(Cl)c3F)=NO2)cc1 [Example 234, 4-((S)-2-((R)-3-(3-Chloro-2-fluorophenyl)-4,5-dihydroisoxazole-5-carbonyl)-5-(4-(oxetan-3-yl)piperidin-1-yl)-1,2,3,4-tetrahydroisoquinoline-1-carboxamido)benzoic acid, TFA salt] |  | 0.0269 | 
O=C(O)c1ccc(NC(=O)[C@@H]2c3cccc(N4CCCCC4)c3CCN2C(=O)[C@H]2CC(c3cccc(Cl)c3F)=NO2)cc1 [Example 291, 4-((S)-2-((R)-3-(3-chloro-2-fluorophenyl)-4,5-dihydroisoxazole-5-carbonyl)-5-(piperidin-1-yl)-1,2,3,4-tetrahydroisoquinoline-1-carboxamido)benzoic acid, TFA salt] | 0.0152 |  | 
CN1CCN(c2cccc3c2CCN(C(=O)C2CC(c4cccc(Cl)c4F)=NO2)C3C(=O)Nc2ccc(C(=O)O)cc2)CC1 (stereo not drawn) [Example 202, 4-(2-(3-(3-chloro-2-fluorophenyl)-4,5-dihydroisoxazole-5-carbonyl)-5-(4-methylpiperazin-1-yl)-1,2,3,4-tetrahydroisoquinoline-1-carboxamido)benzoic acid, 2 TFA salt] | 0.00111 |  | 
COC1CCN(c2cccc3c2CCN(C(=O)C2CC(c4cccc(Cl)c4F)=NO2)C3C(=O)Nc2ccc(C(=O)O)cc2)CC1 (single isomer, unassigned) [Example 305, 4-(2-(3-(3-chloro-2-fluorophenyl)-4,5-dihydroisoxazole-5-carbonyl)-5-(4-methoxypiperidin-1-yl)-1,2,3,4-tetrahydroisoquinoline-1-carboxamido)benzoic acid, TFA] |  |  | Ki ([1]; measured at 25° C. (no asterisk), TFA): 0.0317 µM
COC1CCN(c2cccc3c2CCN(C(=O)C2CCN(c4cccc(Cl)c4)C2=O)C3C(=O)Nc2ccc(C(=O)O)cc2)CC1 (stereo not drawn) [Example 151, 4-(2-(1-(3-chlorophenyl)-2-oxopyrrolidine-3-carbonyl)-5-(4-methoxypiperidin-1-yl)-1,2,3,4-tetrahydroisoquinoline-1-carboxamido)benzoic acid, TFA salt] | 0.816 |  | 
O=C(O)c1ccc(NC(=O)[C@H]2c3cccc(-c4cncc(F)c4)c3CCN2C(=O)[C@H]2CC(c3cccc(Cl)c3F)=NO2)cc1 [Example 22, 4-((R)-2-((R)-3-(3-Chloro-2-fluorophenyl)-4,5-dihydroisoxazole-5-carbonyl)-5-(5-fluoropyridin-3-yl)-1,2,3,4-tetrahydroisoquinoline-1-carboxamido)benzoic acid, TFA salt] |  | 0.869 | 
COC1CCN(c2cccc3c2CCN(C(=O)C2CC(c4cccc(Cl)c4F)=NO2)C3C(=O)Nc2ccc(C(=O)O)cc2)CC1 (single isomer, unassigned) [Example 303, 4-(2-(3-(3-chloro-2-fluorophenyl)-4,5-dihydroisoxazole-5-carbonyl)-5-(4-methoxypiperidin-1-yl)-1,2,3,4-tetrahydroisoquinoline-1-carboxamido)benzoic acid, TFA salt] |  |  | Ki ([1]; measured at 25° C. (no asterisk), TFA salt): 1.96 µM
O=C(O)c1ccc(NC(=O)[C@@H]2c3ccccc3CCN2C(=O)[C@H]2CC(c3cccc(Cl)c3F)=NO2)cc1 [Example 4, 4-((S)-2-((R)-3-(3-Chloro-2-fluorophenyl)-4,5-dihydroisoxazole-5-carbonyl)-1,2,3,4-tetrahydroisoquinoline-1-carboxamido)benzoic acid] | 0.00638 |  | 
CNC(=O)c1ccc(-c2cccc3c2CCN(C(=O)[C@H]2CC(c4cccc(Cl)c4F)=NO2)[C@@H]3C(=O)Nc2ccc(C(=O)O)cc2)cn1 [Example 19, 4-((S)-2-((R)-3-(3-Chloro-2-fluorophenyl)-4,5-dihydroisoxazole-5-carbonyl)-5-(6-(methylcarbamoyl)pyridin-3-yl)-1,2,3,4-tetrahydroisoquinoline-1-carboxamido)benzoic acid, TFA salt] | 0.00151 |  | 
O=C(O)c1ccc(NC(=O)[C@@H]2c3cccc(-c4cncc(F)c4)c3CCN2C(=O)[C@H]2CC(c3cccc(Cl)c3F)=NO2)cc1 [Example 21, 4-((S)-2-((R)-3-(3-Chloro-2-fluorophenyl)-4,5-dihydroisoxazole-5-carbonyl)-5-(5-fluoropyridin-3-yl)-1,2,3,4-tetrahydroisoquinoline-1-carboxamido)benzoic acid, TFA salt] |  | 0.0096 | 
O=C(O)c1ccc(NC(=O)[C@H]2c3cccc(-n4cnnc4)c3CCN2C(=O)[C@H]2CC(c3cccc(Cl)c3F)=NO2)cc1 [Example 248, 4-((R)-2-((R)-3-(3-Chloro-2-fluorophenyl)-4,5-dihydroisoxazole-5-carbonyl)-5-(4H-1,2,4-triazol-4-yl)-1,2,3,4-tetrahydroisoquinoline-1-carboxamido)benzoic acid, TFA salt] |  | 0.0832 | 

Now from value to molecule, other results behind:

Ki [1, 3] [µM] | Ki ([1]; measured at 37° C. (*)) [µM] | Structure (SMILES) | other results
 | 0.251 | CC(C)c1nnc2n1CCN(c1cccc3c1CCN(C(=O)[C@@H]1CC(c4cccc(Cl)c4F)=NO1)[C@@H]3C(=O)Nc1ccc(C(=O)O)cc1)C2 [Example 338, 4-((S)-2-((S)-3-(3-Chloro-2-fluorophenyl)-4,5-dihydroisoxazole-5-carbonyl)-5-(3-isopropyl-5,6-dihydro-[1,2,4]triazolo[4,3-a]pyrazin-7(8H)-yl)-1,2,3,4-tetrahydroisoquinoline-1-carboxamido)benzoic acid, TFA salt] | 
0.186 |  | O=C(O)c1ccc(NC(=O)C2c3cccc(N4CCOCC4)c3CCN2C(=O)[C@H]2CC(c3cccc(Cl)c3F)=NO2)cc1 (stereo in doubt) [Example 296, 4-((S)-2-((R)-3-(3-chloro-2-fluorophenyl)-4,5-dihydroisoxazole-5-carbonyl)-5-morpholino-1,2,3,4-tetrahydroisoquinoline-1-carboxamido)benzoic acid, TFA salt] | 
0.00324 |  | COc1cccc2c1CCN(C(=O)[C@H]1CC(c3cccc(Cl)c3F)=NO1)[C@@H]2C(=O)Nc1ccc(C(=O)O)cc1 [Example 293, 4-((S)-2-((R)-3-(3-chloro-2-fluorophenyl)-4,5-dihydroisoxazole-5-carbonyl)-5-methoxy-1,2,3,4-tetrahydroisoquinoline-1-carboxamide)benzoic acid] | 
0.758 |  | O=C(O)c1ccc(NC(=O)[C@H]2c3cccc(N4CCCCC4)c3CCN2C(=O)[C@H]2CC(c3cccc(Cl)c3F)=NO2)cc1 [Example 292, 4-((R)-2-((R)-3-(3-chloro-2-fluorophenyl)-4,5-dihydroisoxazole-5-carbonyl)-5-(piperidin-1-yl)-1,2,3,4-tetrahydroisoquinoline-1-carboxamide)benzoic acid, TFA salt] | 
 | 0.0846 | CC(C)c1nnc2n1CCN(c1cccc3c1CCN(C(=O)[C@@H]1CC(c4cccc(Cl)c4F)=NO1)[C@H]3C(=O)Nc1ccc(C(=O)O)cc1)C2 [Example 339, 4-((R)-2-((S)-3-(3-Chloro-2-fluorophenyl)-4,5-dihydroisoxazole-5-carbonyl)-5-(3-isopropyl-5,6-dihydro-[1,2,4]triazolo[4,3-a]pyrazin-7(8H)-yl)-1,2,3,4-tetrahydroisoquinoline-1-carboxamido)benzoic acid, TFA salt] | 
0.111 |  | COc1cccc2c1CCN(C(=O)[C@H]1CC(c3cccc(Cl)c3F)=NO1)[C@H]2C(=O)Nc1ccc(C(=O)O)cc1 [Example 294, 4-((R)-2-((R)-3-(3-chloro-2-fluorophenyl)-4,5-dihydroisoxazole-5-carbonyl)-5-methoxy-1,2,3,4-tetrahydroisoquinoline-1-carboxamido)benzoic acid] | 
0.00244 |  | O=C(O)c1ccc(NC(=O)[C@@H]2c3cccc(N4CCOCC4)c3CCN2C(=O)[C@H]2CC(c3cccc(Cl)c3F)=NO2)cc1 [Example 295, 4-((S)-2-((R)-3-(3-chloro-2-fluorophenyl)-4,5-dihydroisoxazole-5-carbonyl)-5-morpholino-1,2,3,4-tetrahydroisoquinoline-1-carboxamido)benzoic acid, TFA salt] | 
